# Assay results reported in PubChem BioAssay AID652213 (The Scripps Research Institute Molecular Screening Center, 2013).
# Activity calls are given as the source filed them. How the calls were made is not given here.
# Target: Serine/threonine-protein phosphatase PP1-alpha catalytic subunit (Homo sapiens) (UniProt P62136)
# Experiment: PP1 inhibitors, OMFP dephosphorylation, late-stage follow-up, biochemical, fluorescence, OMFP substrate, set 3 (AID 652213)
# Details: purified PP1, OMFP dephosphorylation, at 6.7 µM (top of the series)
# Serine/threonine-protein phosphatase PP1-alpha catalytic subunit (Homo sapiens), sequence (P62136 whole entry, looked up): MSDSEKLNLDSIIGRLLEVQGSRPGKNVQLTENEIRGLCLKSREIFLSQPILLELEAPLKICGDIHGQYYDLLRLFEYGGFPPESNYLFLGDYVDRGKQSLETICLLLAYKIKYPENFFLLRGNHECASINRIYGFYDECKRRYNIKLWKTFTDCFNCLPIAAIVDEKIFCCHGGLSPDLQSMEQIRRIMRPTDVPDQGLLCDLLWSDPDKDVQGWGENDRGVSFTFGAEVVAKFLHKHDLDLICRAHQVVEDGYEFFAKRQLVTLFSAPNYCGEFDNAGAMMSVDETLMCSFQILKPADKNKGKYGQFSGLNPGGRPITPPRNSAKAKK
row,SMILES,activity
1,COc1cc(Br)c(C(=O)c2nccc3cc(OC)c(OC)cc23)cc1OC,-11.4% (inactive)
2,CCOC(=O)c1nn(-c2ccc(C)cc2)c(=O)c2c(N)scc12,4.75% (inactive)
3,CN1CCN(C(c2ccccn2)c2cc(Cl)c3cccnc3c2O)CC1 (centres undefined),69.7%
4,CCCN(CC1CC1)c1nc(N)c2c(N)nc(OC)cc2c1C#N,0.2% (inactive)
5,COc1ccc2c(Cl)c(C(=O)N/N=C/c3ccc4c(c3)OCO4)sc2c1,20.2% (inactive)
6,Nc1nc(-c2ccccn2)nc(N)c1Cc1ccc(Cl)cc1Cl,67.1%
7,COc1ccc(Cl)cc1C(=O)Nc1cccc(-c2ccc3nncn3n2)c1,56.6%
8,c1ccc(Nc2nc(-c3ccccn3)cs2)cc1,62%
9,COc1ccc(NC(=O)C2C3CCC(O3)C2C(=O)O)c(OC)c1 (centres undefined),35.3%
10,Nc1cc2nsnc2cc1Br,-10.1% (inactive)
11,N#Cc1c(N2CCCC(O)C2)nc(N)c2c(N)nc3c(c12)CC(=O)N3C12CC3CC(CC(C3)C1)C2 (centres undefined),5.14% (inactive)
12,COc1cnc(-c2ccccn2)nc1Oc1cccc(C(F)(F)F)c1,-4.64% (inactive)
13,CCOC(=O)c1cnc(-n2cc(C)cn2)nc1NCc1ccc2c(c1)OCO2,16.5% (inactive)
14,Cc1ccc(C(=O)NNc2cc(N3CCCC3)nc(N3CCCC3)n2)cc1,4.62% (inactive)
15,O=C(O)c1cc(-c2ccc(Cl)c(Cl)c2)n(-c2ccc(F)cc2)n1,57.7%
16,O=C(NC1(O)C(=O)c2ccccc2C1=O)c1ccccc1,-6.67% (inactive)
17,COc1ccc(Cn2c(N)c(C(=O)NCc3ccco3)c3nc4ccccc4nc32)cc1OC,3.93% (inactive)
18,CCCCn1c(NC(=O)c2ccco2)c(C(=O)OCC)c2nc3ccccc3nc21,-8.57% (inactive)
19,COc1cnc(-c2ccccn2)nc1Oc1cccc(Cl)c1,46.4%
20,O=c1[nH]c(Nc2ccccc2)cc2ccccc12,4.07% (inactive)
21,O=C(NC1(O)C(=O)c2ccccc2C1=O)c1ccc(C(F)(F)F)cc1,8.58% (inactive)
22,COc1cnc(-c2ccccn2)nc1Sc1ccc(Cl)cc1,54.6%

row,SMILES,activity
1,Cc1nnc(NC(=O)C2C3C=CC(O3)C2C(=O)O)s1 (centres undefined),2.61% (inactive)
2,O=C(O)C1C2CCC(O2)C1C(=O)NC1CCCCC1 (centres undefined),26.2% (inactive)
3,COc1cnc(-c2ccccn2)nc1Sc1ccc(F)cc1,53.8%
4,CCOc1ccc(NC(=S)Nc2ccc3nsnc3c2)cc1,2.39% (inactive)
5,Oc1ccc(/C=N/Nc2cc(N3CCOCC3)nc(N3CCOCC3)n2)c(O)c1,7.02% (inactive)
6,CC(C)(CS(=O)(=O)[O-])NC(=O)CC[N+](C)(C)CCO,49.7%
7,O=C(Nc1nc(-c2ccccn2)cs1)C1CC(=O)N(c2ccc3c(c2)OCCO3)C1 (centres undefined),42.3%
8,Oc1cccc(/C=N/Nc2cc(N3CCCC3)nc(N3CCCC3)n2)c1,18.5% (inactive)
9,COc1ccc(OCCCC(=O)Nc2nc(-c3ccccn3)cs2)cc1,26.8%
10,Clc1ccc(-n2nnnc2-c2cnc(-c3ccccn3)nc2-c2cccs2)cc1,66.6%
11,COc1cnc(-c2ccccn2)nc1Sc1ccc(C)cc1,62.9%
12,COc1cnc(-c2ccccn2)nc1Sc1ccccc1Cl,68.7%
13,O=C(O)c1cc(-c2ccc(Cl)cc2)n(-c2cccc(Cl)c2)n1,55.6%
14,COc1ccc(Sc2nc(-c3ccccn3)ncc2OC)cc1,72.4%
15,O=C(NC1(O)C(=O)c2ccccc2C1=O)c1c(Cl)cccc1Cl,-3.06% (inactive)
16,Cc1ccc(C(=O)NC2(O)C(=O)c3ccccc3C2=O)cc1C,1.19% (inactive)
17,O=C1CCCC2=C1C1(O)C(=O)c3ccccc3C1(O)O2 (centres undefined),3.07% (inactive)
18,CCCCN(CC)c1nc(N)c2c(N)nc(OCC)cc2c1C#N,4.31% (inactive)
19,COc1ccc(CN2C(=O)Cc3c2nc(N)c2c(N)nc(N4CCCCC4)c(C#N)c32)cc1,-0.66% (inactive)
20,CCOC(=O)c1cnc(-n2nc(C)cc2C)nc1NC1CCCCC1,59.7%
21,O=C1Nc2ccccc2N2CCCC12 (centres undefined),-7.49% (inactive)
22,O=S(=O)(Cc1cc(NCc2ccccc2)nc(-c2ccccn2)n1)c1ccccc1,50%

row,SMILES,activity
1,N#Cc1c(-c2ccc(Cl)cc2)cc(-c2cccs2)nc1SCC(=O)O,45.4%
2,Oc1ccccc1/C=N/Nc1cc(N2CCCC2)nc(N2CCCC2)n1,4.03% (inactive)
3,CCn1c2ccccc2c2cc(NC(=O)COC(=O)c3ccc(NC(=O)CC#N)cc3)ccc21,49%
4,COc1ccc(C(=O)c2nccc3cc(OC)c(OC)cc23)cc1OC,5.53% (inactive)
5,CCOC(=O)c1sc2nc3c(SCC(=O)O)cc(C(=O)c4cc(F)ccc4O)cn3c(=O)c2c1C,65.9%
6,Cc1cc(C)c(S(=O)(=O)/N=C2\C=C(Sc3ncn[nH]3)C(=O)c3ccccc32)cc1C,5.84% (inactive)
7,CCOC(=O)c1sc(N2C(=O)C(O)=C(C(=O)c3ccco3)C2c2cccc([N+](=O)[O-])c2)nc1C (centres undefined),26.6%
8,CCOC(=O)c1cnc(-n2nc(C)cc2C)nc1NCCc1ccccc1,68.3%
9,Cc1[nH]n(-c2ccccc2)c(=O)c1C(c1ccc([N+](=O)[O-])cc1)c1c(C)[nH]n(-c2ccccc2)c1=O,-6.69% (inactive)
10,COc1ccccc1Sc1nc(-c2ccccn2)ncc1OC,63.1%
11,CCOC(=O)c1cnc(-n2nc(C)cc2C)nc1NC(C)c1ccccc1 (centres undefined),69.4%
12,COc1cnc(-c2ccccn2)nc1Sc1ccccc1,64.9%
13,CCOC(=O)c1cnc(-n2nc(C)cc2C)nc1NCc1ccccc1,62.5%
14,COc1ccc(NC(=S)Nc2ccc3nsnc3c2)cc1,-1.36% (inactive)
15,O=C(O)c1cc(-c2ccc(Cl)c(Cl)c2)n(-c2ccccc2)n1,59.9%
16,CCOC(=O)C1=C(C)OC2(O)c3ccccc3C(=O)C12O (centres undefined),27.1% (inactive)
17,Cc1ccc(-n2nc(C(=O)O)cc2-c2ccc(Cl)cc2)cc1,54.8%
18,CC(=O)C(C(C)=O)C1(O)C(=O)c2ccccc2C1=O,1.17% (inactive)
19,COc1cnc(-c2ccccn2)nc1Sc1cccc(Cl)c1,64.1%
20,c1ccc(-c2nccc(-c3ccc(-n4cnc5ccccc54)cc3)n2)nc1,62.4%
